Data from US9610294B2, “Methods and compositions for the treatment of fluid accumulation in and/or under the retina” (UNIVERSITE PARIS DESCARTES, priority 2010, dated 2017).
Entries after “also recorded” stand apart in the source; their conditions may differ.

Columns and labels:
retina [1] = assay: Intravitreous aldosterone injection in rat eyes: retinal morphology and thickness; type: in vivo, Lewis rats
Experimental: All experiments were performed in accordance with the European Communities Council Directive 86/609/EEC and approved by local ethical committees. Adult female Lewis rats (8-12 weeks old, Janvier, Le Genest-Saint-Isle, France) were used for preparation of RMG primary cultures, for retinal organotypic cultures and for in vivo experiments. Rats were sacrificed by carbon dioxide inhalation.
Anesthesia of rats was induced by intramuscular injection of ketamine (100 mg/kg, Virbac, Carros, France) and chlorpromazine (0.65 mg/kg, LARGACTIL®, Sanofi Aventis, Livron sur Drome, France). Intravitreous injections were performed using microfine (300 μl) syringes with 30 G needles under topical anesthesia (tetracaine 1%, Aldrich, Lyon, France). Rat eyes were injected with 5 μl aldosterone diluted in 0.9% saline to obtain a concentration of 200 nM for injection, corresponding to a final concentration of 20 nM in the vitreous. Control rat eyes were injected with 5 μl saline. Twenty-four hrs after injection, rats were sacrificed. Eyes were then removed for retinal flat mounting, immunohistochemistry and morphological analysis respectively.
Enucleated eyes were fixed in 2.5% glutaraldehyde in cacodylate buffer (0.1 M, pH 7.4). After 30 min, eyes were dissected at the level of the limbus and lens removed. The posterior part was fixed for a further 5 hrs, dehydrated in a graded alcohol series (50%, 70%, 95% and 100%) and embedded in epoxy resin. Semi-thin sections (1 J.Im) were cut using an ultramicrotome (Reichert Ultracut E, Leica, Wetzlar, Germany), and stained with toluidine blue. The morphology was examined under a light microscope (DMRB, Leica). Retinal thickness was measured manually every 100 μm from the peripheral to the posterior pole. For analysis, the retina was divided into 3 zones: periphery, middle and posterior pole. In each zone, 3-4 individual measurements were performed in each section. Two to 6 sections were analyzed per rat (3 rats with aldosterone intravitreous injection and 3 with sham injection)

ENaC-α = ENaC-α expression (real-time PCR, western blot) in rat RMG primary cultures and retinal explants; type: cell-based
Experimental: Rat RMG cells were obtained as described (deKozak, Y., Naud, M. C., Bellot, J., Faure, J. P., and Hicks, D. (1994) Differential tumor necrosis factor expression by resident retinal cells from experimental uveitis-susceptible and -resistant rat strains. J Neuroimmunol 55, 1-9). Briefly, rats at postnatal (PN) day 17 (when RMG cells are mature) were sacrificed and eyes enucleated. Intact eyeballs were maintained in DMEM overnight at room temperature in the dark, and then incubated 45 min with 2 mg/ml trypsin/collagenase I at 37° C. The neural retinas were separated from the lens and vitreous, cut into small fragments and plated in Petri dishes containing DMEM supplemented with 10% FCS, 100 units/ml penicillin, 100 µg/ml streptomycin, and 0.2% amphotericin B. Cultures were maintained at 37° C. in a humidified atmosphere containing 5% CO2. After 5 to 6 days, the cultures were washed extensively with medium so that only a strongly adherent flat cell population remained.
Müller cells were seeded in 6-well tissue culture plates (Becton Dickinson, Le Pont de Claix, France). Rat PN17 RMG cells were maintained in their initial Petri dishes. Sub confluent (80%) cells were incubated in media supplemented with 10% steroid-free (charcoal treated) FCS for 24 hrs. Corticosteroid (Sigma-Aldrich, Saint Quentin Fallavier, France) treatments were then applied respectively for a further 24 hrs: 10 nM aldosterone, 10 nM aldosterone plus 1).IM RU38486 (GR-specific antagonist), 10 nM aldosterone plus 1 µM RU26752 (MR-specific antagonist) or 1 µM dexamethasone. The steroids were previously dissolved in 2% steroid-free FCS media containing 0.1% ethanol. Control cells were treated with 0.1% ethanol in media.
After enucleation, rat retinas were isolated immediately under aseptic conditions and cut into 4 pieces. They were then transferred onto a Cyclopore 0.2).Im polycarbonate membrane (Whatman, Maidstone, England), and flatmounted with the vitreal side up. The support membranes were placed in 6-well tissue culture plates containing 2 ml DMEM supplemented with 10% steroid-free FCS, 1% penicillin-streptomycin and 0.1% amphotericin B. Explants were treated with corticosteroids as described for cultured cells. Similarly, the dose-dependent effect of aldosterone (0.1-100 nM) was analyzed on retinal explants in separate experiments.
Total RNA was isolated from the treated RMG cells and retinal explants using RNeasy Mini Kit (Qiagen, Courtaboeuf, France). First-strand cDNA was synthesized after DNase I (Qiagen) treatment using random primers (Invitrogen) and superscript II reverse transcriptase (Invitrogen). Transcript levels of ENaC-a, Kir4.1 and AQP4 were analyzed by real-time PCR performed in 7500 Real-Time PCR System (Applied Biosystems, Foster City, Calif., USA) with either TaqMan® (Applied Biosystems) or SYBR® Green (Invitrogen, Cergy Pontoise, France) detection. The 18S was used as internal control.
Retinal explants were homogenized in Np40 buffer in the presence of protease inhibitors. The protein concentration was determined by the Bradford method. Equal amounts of protein (12 .ug) were separated on Novex® 4%-12% Tris-Glycine gel (Invitrogen), transferred to nitrocellulose, and the blots were incubated with primary antibodies at 4° C. overnight. The membranes were washed, incubated with horse radish peroxidase conjugated goat anti-rabbit IgG (1:3000, Vector, AbCys, Paris, France) for 1 hr at room temperature, and developed using ECL Plus western blotting detection reagents (GE healthcare, Orsay, France). The j3-actin was used as internal control. The following primary antibodies were used: rabbit anti-alpha ENaC (1:500, Abcam, Cambridge, Mass., USA), rabbit anti-Kir4.1 (1:400, Alomone Labs, Jerusalem, Israel), rabbit anti-AQP4 (1:750, Millipore, St Quentin en Yvelines, France) and rabbit anti-j3-actin (1:1000, Abcam)

aquaporin 1 = assay: Aquaporin 1 expression after exposure to aldosterone; conditions: normal rat, 24 hours exposure, low aldosterone dose (1-10 nM)
AQP4 = AQP4 mRNA expression in RMG cells (Example 2); type: cell-based
Excerpt: We have performed several experiments.

retina [2] = assay: Intraocular injection in Brown Norway rats (gain of function mutation in the MR gene): CSCR-like retinal pathology; type: in vivo; conditions: FIGS. 1 and 2
[3] = single intravitreous injection, 20 nM, 24 hrs later

C[C@]12CCC(=O)C=C1CC[C@@H]1[C@@H]2[C@@H](O)C[C@]2(C=O)[C@@H](C(=O)CO)CC[C@@H]12 [aldosterone]
retinal swelling (increase compared to sham-injected eyes) (retina [1]; intravitreous injection, 20 nM final in the vitreous, 24 hrs): 24%
Retinal thickness compared to sham-injected eyes (retina [1]; [3]): significantly increased
retinal morphological changes on semi-thin sections (retina [1]; [3]): fluid accumulation in the entire retina
ENaC-α subunit mRNA expression (ENaC-α; 24 hrs treatment, rat RMG primary cultures and retinal explants): significant up-regulation
dose dependence of ENaC-α transcripts (ENaC-α; aldosterone 0.1-100 nM, retinal explants): dose dependent manner
expression of sodium channel ENaC-a (ENaC-α; aldosterone 24 hrs): 6.5 fold
ENaC-α expression at the protein level (ENaC-α; western blot, retinal explants): up-regulated
expression of aquaporin 1 (aquaporin 1): reduces
expression of the water channel AQP4 (AQP4): up-regulates
retinal pathology after intraocular injection (retina [2]): develop a retinal pathology similar to CSCR; also recorded: vasodilation of choroid vessels, rupture of the junction between RPE cells, swallowing of the photoreceptor segments and sub retinal fluid accumulation; also recorded: develop a retinal pathology very close to CSCR
